Key:
[1] = Cytotoxicity against human H9 cells assessed as reduction in cell viability incubated for 7 days by MTT assay; format: cell-based
[2] = tested on: Human immunodeficiency virus 1; experiment: Antiviral activity against HIV1 infected in human H9 cells assessed as decrease in p24 antigen production incubated for 7 days by ELISA; format: functional, organism-based; conditions: Human immunodeficiency virus 1, H9, 168 h
[3] = Selectivity index, ratio of CC50 for human H9 cells to EC50 for antiviral activity against HIV-1; format: toxicity; conditions: read-out: Ratio CC50/EC50

SMILES	EC50 [2]	CC50 at 168 h [1]	selectivity ratio [3]
Nc1cccc(Sc2ccc([N+](=O)[O-])cc2)c1C(=O)Nc1ccccc1I	125 µM	407 µM	3.26
CS(=O)(=O)Oc1ccccc1NC(=O)c1c(N)cccc1Sc1ccc([N+](=O)[O-])cc1	79.9 µM	422 µM	5.28
COc1ccccc1NC(=O)c1c(N)cccc1Sc1ccc(F)cc1	44.8 µM	543 µM	15.6
COc1ncccc1NC(=O)c1c(N)cccc1S(=O)(=O)c1ccc([N+](=O)[O-])cc1	228 µM		
COc1ccccc1NC(=O)c1c(N)cccc1Sc1ccc(C(=O)O)cc1	252 µM		
COc1ccccc1NC(=O)c1c(N)cccc1S(=O)(=O)c1ccc(C(=O)O)cc1	235 µM		
COc1ccccc1NC(=O)c1c(N)cccc1Sc1ccc(C(F)(F)F)cc1	24.2 µM	352 µM	14.6
COc1ccccc1NC(=O)c1c(N)cccc1Sc1ccncc1	176 µM	569 µM	3.23
COc1ncccc1NC(=O)c1c(N)cccc1Sc1ccc([N+](=O)[O-])cc1	25.9 µM	182 µM	7.03
Nc1cccc(S(=O)(=O)c2ccc([N+](=O)[O-])cc2)c1C(=O)Nc1ccccc1I	30.9 µM	382 µM	12.4
COc1ccccc1NC(=O)c1c(N)cccc1S(=O)(=O)c1cc(C)cc(C)c1	244 µM		

Compounds with a lower EC50 [2], results first:

EC50 [2]	SMILES	CC50 at 168 h [1]	selectivity ratio [3]
2.12 µM	COc1ccccc1NC(=O)c1c(N)cccc1Sc1ccc([N+](=O)[O-])cc1	462 µM	263
9.6 µM	COc1ccccc1NC(=O)c1c(N)cccc1Sc1cc(C)cc(C)c1	181 µM	18.9
15.1 µM	Nc1ccccc1NC(=O)c1c(N)cccc1Sc1ccc([N+](=O)[O-])cc1	427 µM	28.3
20.3 µM	COc1ccc(NC(=O)c2c(N)cccc2Sc2ccc([N+](=O)[O-])cc2)c(OC)c1	82.5 µM	4.06
4.62 µM	COc1ccccc1NC(=O)c1c(N)cccc1S(=O)(=O)c1ccc(C(F)(F)F)cc1	444 µM	96.5
12.3 µM	COc1ccccc1NC(=O)c1c(N)cccc1S(=O)(=O)c1ccc(F)cc1	499 µM	53.7
9.8 µM	Nc1cccc(Sc2ccc([N+](=O)[O-])cc2)c1C(=O)Nc1ccccc1O	153 µM	15.6
